# Calls of active or inactive are those of the source. No cut-off for these calls is given here.
# Experiments:
# [1] = test system: Human immunodeficiency virus 1; assay: Reversal of HIV-1 latency in CD4+ T-lymphoid J-Lat cells contains HIV-1 long terminal repeats (LTR)-Tat-GFP assessed as reactivation measured after 48 hrs by flow cytometry; type: functional, organism-based; conditions: Human immunodeficiency virus 1, J-Lat 10.6, 48 h
# [2] = Cytotoxicity against human non-infected J-Lat A10.6 cells assessed as cell death by CCK8 assay; type: toxicity, cell-based, J-Lat 10.6
# PBMC [3] = assay: Immune hyper-activation in human PBMC cells assessed as CD25 expression at 10 uM measured after 48 hrs by flow cytometry; type: toxicity, cell-based
# PBMC [4] = assay: Immune hyper-activation in human PBMC cells assessed as CD69 expression at 10 uM measured after 48 hrs by flow cytometry; type: toxicity, cell-based
# PBMC [5] = assay: Immune hyper-activation in human PBMC cells assessed as HLA-DR expression at 10 uM measured after 48 hrs by flow cytometry; type: toxicity, cell-based
# [6] = target: Bromodomain-containing protein 4 (Homo sapiens) (UniProt O60885); assay: Inhibition of BRD4 phosphorylation in human J-Lat A10.6 cells contains HIV-1 long terminal repeats (LTR)-Tat-GFP at 2 to 50 uM measured after 24 hrs by Western blotting analysis; type: cell-based; conditions: J-Lat 10.6, dose 2-50 µM
# [7] = target: Bromodomain-containing protein 4 (Homo sapiens) (UniProt O60885); assay: Inhibition of human BRD4 in J-lat 10.6 cells contains HIV-1 long terminal repeats (LTR)-Tat-GFP assessed as cyclin T1 expression at 2 to 50 uM measured after 24 hrs by Western blot analysis; type: cell-based; conditions: dose 2-50 µM
# [8] = target: Bromodomain-containing protein 4 (Homo sapiens) (UniProt O60885); assay: Inhibition of human BRD4 in J-lat 10.6 cells contains HIV-1 long terminal repeats (LTR)-Tat-GFP assessed as CDK9 expression at 2 to 50 uM measured after 24 hrs by Western blot analysis; type: cell-based; conditions: dose 2-50 µM
# [9] = target: Bromodomain-containing protein 4 (Homo sapiens) (UniProt O60885); assay: Inhibition of human BRD4 in J-lat 10.6 cells contains HIV-1 long terminal repeats (LTR)-Tat-GFP assessed as phosphorylated CDK9 expression at 2 to 50 uM measured after 24 hrs by Western blot analysis; type: cell-based; conditions: dose 2-50 µM
# [10] = target: Bromodomain-containing protein 4 (Homo sapiens) (UniProt O60885); assay: Inhibition of human BRD4 recruitment in J-Lat A10.6 cells contains HIV-1 long terminal repeats (LTR) assessed as reduction of BRD4 and HIV-1 LTR interaction at 10 uM incubated for 6 hrs by CHIP assay; type: cell-based; conditions: J-Lat 10.6
# [11] = target: Bromodomain-containing protein 4 (Homo sapiens) (UniProt O60885); assay: Inhibition of BRD4 in human J-Lat 10.6 cells contains HIV-1 long terminal repeats (LTR)-Tat-GFP assessed as increased CDK9 enrichment in LTR at 10 uM incubated for 6 hrs by ChiP assay; type: cell-based
# [12] = target: Bromodomain-containing protein 4 (Homo sapiens) (UniProt O60885); assay: Inhibition of BRD4 in human J-Lat 10.6 cells contains HIV-1 long terminal repeats (LTR)-Tat-GFP assessed as increased RNA pol II enrichment in LTR at 10 uM incubated for 6 hrs by ChiP assay; type: cell-based
# [13] = test system: Human immunodeficiency virus 1; assay: Synergistic reversal of HIV-1 latency in human J-Lat 10.6 cells contains HIV-1 long terminal repeats (LTR)-Tat-GFP assessed as increase in GFP-positive cells by measuring combination index at 10 uM incubated for 48 hrs in presence of Prostratin by flow cytometry; type: functional
# [14] = Synergistic reversal of HIV-1 latency in human J-Lat 10.6 cells contains HIV-1 long terminal repeats (LTR)-Tat-GFP assessed as increase in GFP-positive cells by measuring combination index at 10 uM incubated for 48 hrs in presence of N1-hydroxy-N8-phenyloctanediamide by flow cytometry; type: functional, Human immunodeficiency virus 1
# J-Lat 10.6 [15] = assay: Reversal of HIV-1 latency in human J-Lat10.6 cells contains HIV-1 long terminal repeats (LTR)-Tat-GFP assessed as reactivation measured at 10 uM after 48 hrs in presence of raltegravir by flow cytometry; type: functional, cell-based; conditions: Human immunodeficiency virus 1
# J-Lat 10.6 [16] = assay: Reversal of HIV-1 latency in human J-Lat10.6 cells contains HIV-1 long terminal repeats (LTR)-Tat-GFP assessed as reactivation measured at 10 uM after 48 hrs in presence of Efavirenz by flow cytometry; type: functional, cell-based; conditions: Human immunodeficiency virus 1
# J-Lat 10.6 [17] = assay: Reversal of HIV-1 latency in human J-Lat10.6 cells contains HIV-1 long terminal repeats (LTR)-Tat-GFP assessed as reactivation measured at 10 uM after 48 hrs in presence of darunavir by flow cytometry; type: functional, cell-based; conditions: Human immunodeficiency virus 1
# [18] = test system: Human immunodeficiency virus 1; assay: Reversal of HIV-1 latency in ACH-2 cell line contains complete HIV-1 provirus assessed as reactivation by measuring HIV-1 p24 antigen expression 5 uM measured after 48 hrs by ELISA; type: functional, organism-based
# PBMC [19] = assay: Cytotoxicity against human PBMC cells assessed as cell viability measured after 48 hrs by MTT assay; type: toxicity, cell-based
# [20] = Cytotoxicity against human J-Lat A10.6 cells infected with HIV-1 assessed as cell viability measured after 48 hrs by MTT assay; type: toxicity, cell-based; conditions: j-lat 10.6, 48 h
# ACH-2 cell line = assay: Cytotoxicity against human ACH-2 cell line cells infected with HIV-1 assessed as cell viability measured after 48 hrs by MTT assay; type: toxicity, cell-based; conditions: ach-2, 48 h
# [21] = Cytotoxicity against human OM10.1 cells infected with HIV-1 assessed as cell viability measured after 48 hrs by MTT assay; type: toxicity, cell-based; conditions: om10.1, 48 h
# [22] = target: Bromodomain-containing protein 4 (Homo sapiens) (UniProt O60885); assay: Inhibition of BRD4 BD1 domain (unknown origin) at 1 uM by HTRF assay
# [23] = target: Bromodomain-containing protein 4 (Homo sapiens) (UniProt O60885); assay: Inhibition of BRD4 BD2 domain (unknown origin) at 1 uM by HTRF assay
# [24] = Effect on CXCR4 expression in human PBMC cells at 10 uM incubated for 48 hrs by flow cytometry; type: toxicity, cell-based
# [25] = Effect on CXCR5 expression in human PBMC cells at 10 uM incubated for 48 hrs by flow cytometry; type: toxicity, cell-based
# PBMC [26] = assay: Effect on CXCR4 expression in human PBMC cells at 1 uM incubated for 48 hrs by flow cytometry; type: functional, cell-based
# PBMC [27] = assay: Effect on CXCR5 expression in human PBMC cells at 1 uM incubated for 48 hrs by flow cytometry; type: functional, cell-based
smiles,measurement,setting,value
Cc1nnc2ccc(-c3cc(NS(=O)(=O)c4ccc(F)cc4)ccc3Oc3ccc(F)cc3F)cn12,EC50,[1],1600 nM
same,CC50,[2],> 50000 nM
same,Activity,PBMC [3],Non-Toxic
same,Activity,PBMC [4],Non-Toxic
same,Activity,PBMC [5],Non-Toxic
same,inhibition,[6],Active
same,inhibition,[7],inactive
same,inhibition,[8],inactive
same,inhibition,[9],Active
same,inhibition,[10],Active
same,inhibition,[11],Active
same,inhibition,[12],Active
same,CI,[13],0.1
same,CI,[14],0.1
same,Activity,J-Lat 10.6 [15],Active
same,Activity,J-Lat 10.6 [16],Active
same,Activity,J-Lat 10.6 [17],Active
same,Activity,[18],Active
same,Activity,PBMC [19],Non-Toxic
same,Activity,[20],Non-Toxic
same,Activity,ACH-2 cell line,Non-Toxic
same,Activity,[21],Non-Toxic
same,inhibition,[22],Active
same,inhibition,[23],Active
same,Activity,[24],Not Active
same,Activity,[25],Not Active
same,Activity,PBMC [26],inactive
same,Activity,PBMC [27],inactive
